From US20250215032A1, “PHOSPHORYLPURINONE COMPOUNDS FOR THE TREATMENT OF CANCER” (Hoffmann-La Roche Inc., priority 2022, published 2025)

Assays:
[1] = target: T1, human TLR7 (Homo sapiens, UniProt Q9NYK1); test: HEK293-Blue-hTLR7 cells assay (SEAP reporter, NF-κB activation)
T1 sequence (Q9NYK1 27-1049): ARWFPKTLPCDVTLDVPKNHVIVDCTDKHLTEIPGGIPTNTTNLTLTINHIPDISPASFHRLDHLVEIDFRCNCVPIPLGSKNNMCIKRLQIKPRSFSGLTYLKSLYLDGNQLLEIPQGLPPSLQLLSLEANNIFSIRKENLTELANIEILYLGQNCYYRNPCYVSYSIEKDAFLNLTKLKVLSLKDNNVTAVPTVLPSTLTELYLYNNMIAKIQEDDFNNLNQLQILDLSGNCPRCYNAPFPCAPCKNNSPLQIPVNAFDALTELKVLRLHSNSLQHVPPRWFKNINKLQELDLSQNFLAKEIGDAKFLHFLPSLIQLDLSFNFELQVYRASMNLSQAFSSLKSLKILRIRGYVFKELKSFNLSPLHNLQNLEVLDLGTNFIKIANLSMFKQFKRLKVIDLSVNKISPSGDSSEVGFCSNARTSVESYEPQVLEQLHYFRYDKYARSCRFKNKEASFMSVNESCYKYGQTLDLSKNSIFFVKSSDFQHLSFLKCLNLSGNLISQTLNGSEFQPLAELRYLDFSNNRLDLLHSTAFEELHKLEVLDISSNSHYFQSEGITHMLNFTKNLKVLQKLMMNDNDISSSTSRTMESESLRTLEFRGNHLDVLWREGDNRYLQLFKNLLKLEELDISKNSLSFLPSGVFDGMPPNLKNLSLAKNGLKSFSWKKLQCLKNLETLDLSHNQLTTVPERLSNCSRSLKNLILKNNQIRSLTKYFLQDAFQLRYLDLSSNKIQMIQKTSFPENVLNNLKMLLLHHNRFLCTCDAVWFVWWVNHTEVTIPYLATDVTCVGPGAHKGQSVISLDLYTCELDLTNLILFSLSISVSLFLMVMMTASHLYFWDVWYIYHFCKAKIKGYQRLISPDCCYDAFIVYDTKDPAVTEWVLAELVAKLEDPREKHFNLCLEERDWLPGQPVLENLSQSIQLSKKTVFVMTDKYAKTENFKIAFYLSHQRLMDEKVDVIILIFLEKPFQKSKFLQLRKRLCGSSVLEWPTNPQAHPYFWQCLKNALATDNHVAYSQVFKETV
Excerpt: A stable HEK293-Blue-h TLR7 cell line was purchased from InvivoGen (Cat. #: hkb-htlr7, San Diego, California, USA). These cells were designed for studying the stimulation of human TLR7 by monitoring the activation of NF-κB. A SEAP (secreted embryonic alkaline phosphatase) reporter gene was placed under the control of the IFN-β minimal promoter fused to five NF-κB and AP-1-binding sites. The SEAP was induced by activating NF-κB and AP-1 via stimulating HEK-Blue hTLR7 cells with TLR7 ligands. Therefore the reporter expression was regulated by the NF-κB promoter upon stimulation of human TLR7 for 20 hrs. The cell culture supernatant SEAP reporter activity was determined using QUANTI-Blue™ kit (Cat. #: rep-qb1, Invivogen, San Diego, Ca, USA) at a wavelength of 640 nm, a detection medium that turns purple or blue in the presence of alkaline phosphatase.
HEK293-Blue-hTLR7 cells were incubated at a density of 250,000˜450,000 cells/mL in a volume of 180 μL in a 96-well plate in Dulbecco's Modified Eagle's medium (DMEM) containing 4.5 g/L glucose, 50 U/mL penicillin, 50 mg/mL streptomycin, 100 mg/mL Normocin, 2 mM L-glutamine, 10% (V/V) heat-inactivated fetal bovine serum for 24 hrs. Then the HEK293-Blue-hTLR7 cells were incubated with addition of 20 μL test compound in a serial dilution in the presence of final DMSO at 1% and perform incubation under 37° C. in a CO2 incubator for 20 hrs.

[2] = Lyophilisation solubility assay (LYSA), kinetic solubility; assay type: physicochemical; details: aqueous buffer; 0.05 M phosphate buffer (pH 6.5), from 10 mM DMSO stock after evaporation
Excerpt: The solubility of a substance can be broadly defined as the maximum amount of the substance that dissolves in a specified volume of solvent. However, it is important to understand that the solubility of a compound can vary drastically depending on the condition of the solvent (e.g. temperature and pH) and the physiochemical properties of the compound (e.g. ionisation and crystallinity). These critical factors need to be considered during solubility determination in order to generate high quality solubility data that will be useful in the progression of compounds through the discovery and development stages. The kinetic solubility of a compound is the maximum solubility of the fastest precipitating species of the compound; this is often measured using a stock solution of the compound dissolved in an organic solvent, typically dimethyl sulfoxide (DMSO), as the starting material. […] The precipitate formed, which is rarely determined during the assessment, could be any combination of various possible solid states of the compound. Given the level of supersaturation that could occur when an organic solvent is diluted in water, kinetic solubility values are typically higher than the corresponding thermodynamic (equilibrium) solubility values. Solubility assays in the early discovery process often determine kinetic solubility. The lyophilisation solubility assay (LYSA) is a high throughput kinetic solubility assay for the early drug discovery process.
Samples were prepared in duplicate from 10 mM DMSO stock solution. After evaporation of DMSO with a centrifugal vacuum evaporator, the compounds were solved in 0.05 M phosphate buffer (pH 6.5), stirred for one hour and shaken for two hours. After one night, the solutions were filtered using a microtiter filter plate. Then the filtrate and its 1/10 dilution were analyzed by HPLC-UV. […] The results were in μg/mL. […] It should be noted that metastable solid phases may form during the evaporation step, and the method might therefore produce higher solubility values than assays using the stable polymorph as the starting material.

EC50 [1] [nM]	solubility kinetic [2] [µg/mL]	Structure (SMILES)
28	> 600	CP(C)(=O)c1nc(N)c2[nH]c(=O)n(Cc3ccc(N4CCC(N)C4)nc3)c2n1 (stereo not drawn) [Example 3, 6-amino-9-[[6-(3-aminopyrrolidin-1-yl)-3-pyridyl]methyl]-2-dimethylphosphoryl-7H-purin-8-one]
10	> 640	CC1(C)CN(c2ccc(Cn3c(=O)[nH]c4c(N)nc(P(C)(C)=O)nc43)cn2)CCN1 [Example 4, 6-amino-2-dimethylphosphoryl-9-[[6-(3,3-dimethylpiperazin-1-yl)-3-pyridyl]methyl]-7H-purin-8-one]
28	> 620	CN1CCC(Nc2ccc(Cn3c(=O)[nH]c4c(N)nc(P(C)(C)=O)nc43)cn2)C1 (stereo not drawn) [Example 11, 6-amino-2-dimethylphosphoryl-9-[[6-[(1-methylpyrrolidin-3-yl)amino]-3-pyridyl]methyl]-7H-purin-8-one]
	> 530	CC[P@](C)(=O)c1nc(N)c2[nH]c(=O)n(Cc3ccc(N4CCN(C)CC4)nc3)c2n1 [Example 13-B, 6-amino-2-[(S)-ethyl(methyl)phosphoryl]-9-[[6-(4-methylpiperazin-1-yl)-3-pyridyl]methyl]-7H-purin-8-one]

The remaining lines, values behind:

Structure (SMILES)	EC50 [1] [nM]	solubility kinetic [2] [µg/mL]
CP(C)(=O)c1nc(N)c2[nH]c(=O)n(Cc3ccc(N4CC5CCC4CN5)nc3)c2n1 (stereo not drawn) [Example 5, 6-amino-9-[[6-(2,5-diazabicyclo[2.2.2]octan-2-yl)-3-pyridyl]methyl]-2-dimethylphosphoryl-7H-purin-8-one]	12	> 570
CP(C)(=O)c1nc(N)c2[nH]c(=O)n(Cc3ccc(N4CC5CNCC5C4)nc3)c2n1 (stereo not drawn) [Example 6, 9-[[6-(2,3,3a,4,6,6a-hexahydro-1H-pyrrolo[3,4-c]pyrrol-5-yl)-3-pyridyl]methyl]-6-amino-2-dimethylphosphoryl-7H-purin-8-one]	27	> 630
CP(C)(=O)c1nc(N)c2[nH]c(=O)n(Cc3ccc(NCCN4CCCC4)nc3)c2n1 [Example 7, 6-amino-2-dimethylphosphoryl-9-[[6-(2-pyrrolidin-1-ylethylamino)-3-pyridyl]methyl]-7H-purin-8-one]	38	> 540
CP(C)(=O)c1nc(N)c2[nH]c(=O)n(Cc3ccc(NC4CCOCC4)nc3)c2n1 [Example 8, 6-amino-2-dimethylphosphoryl-9-[[6-(tetrahydropyran-4-ylamino)-3-pyridyl]methyl]-7H-purin-8-one]	39	> 520
CN(C)CC1CCN(c2ccc(Cn3c(=O)[nH]c4c(N)nc(P(C)(C)=O)nc43)cn2)C1 (stereo not drawn) [Example 9, 6-amino-9-[[6-[3-[(dimethylamino)methyl]pyrrolidin-1-yl]-3-pyridyl]methyl]-2-dimethylphosphoryl-7H-purin-8-one]	21	> 650
CN1CCOC2(CCN(c3ccc(Cn4c(=O)[nH]c5c(N)nc(P(C)(C)=O)nc54)cn3)CC2)C1 [Example 10, 6-amino-2-dimethylphosphoryl-9-[[6-(4-methyl-1-oxa-4,9-diazaspiro[5.5]undecan-9-yl)-3-pyridyl]methyl]-7H-purin-8-one]	24	> 650
CC[P@@](C)(=O)c1nc(N)c2[nH]c(=O)n(Cc3ccc(N4CCN(S(C)(=O)=O)CC4)nc3)c2n1 [Example 14-A, 6-amino-2-[(R)-ethyl(methyl)phosphoryl]-9-[[6-(4-methylsulfonylpiperazin-1-yl)-3-pyridyl]methyl]-7H-purin-8-one]		150
CC[P@](C)(=O)c1nc(N)c2[nH]c(=O)n(Cc3ccc(N4CCN(S(C)(=O)=O)CC4)nc3)c2n1 [Example 14-B, 6-amino-2-[(S)-ethyl(methyl)phosphoryl]-9-[[6-(4-methylsulfonylpiperazin-1-yl)-3-pyridyl]methyl]-7H-purin-8-one]		170
